Reference: patent publication US20100179192A1, “USE OF NITRIC OXIDE RELEASING COMPOUNDS IN THE TREATMENT OF CHRONIC PAIN” (NICOX S.A., priority 2007, published 2010)

System: hyperalgesic responses following chronic constriction injuries of the rat sciatic nerve
Assay: Chronic constriction injury (CCI)-induced mechanical hyperalgesia in rats (modified Randall-Selitto method)
Format: in vivo
Details: for Contra-PWT30 min (paw withdrawal threshold, contralateral unlesioned paw) / Ipsi-PWT30 min (paw withdrawal threshold, CCI-lesioned ipsilateral paw) / PWT30 min: 30 min after treatment; for Contra-PWT30 min (paw withdrawal threshold, contralateral unlesioned paw) / Ipsi-PWT30 min (paw withdrawal threshold, CCI-lesioned ipsilateral paw): cut-off 240 g; for Ipsi-PWT30 min (paw withdrawal threshold, CCI-lesioned ipsilateral paw): 7 days after sciatic nerve ligation; for PWT30 min / PWT60 min: Table II, 175 μmol/kg sc each agent, alone or in combination; for PWT60 min: 60 min after treatment
Experimental: The efficacy of nitrooxyderivatives of antioxidant compounds of formula (I) in the treatment of neuropathic pain was evaluated in the model of hyperalgesic responses following chronic constriction injuries of the rat sciatic nerve. The pharmacological activity of the compounds of formula (I) was compared to that of the known analgesic drugs. The parent not-derivatized antioxidant drug was used as reference. The efficacy of the equimolar combination of compounds of formula (I) and analgesic drugs selected between the group of gabapentin, tiagabine and pregabalin was also evaluated, on the same experimental model.
The method described by Bennet and Xie (1988) was generally followed. Rats were anesthetized with chloral hydrate (380 mg/kg ip, Sigma). The right common sciatic nerve was exposed at the level of the middle of the high by blunt dissection through the biceps femoris. Proximal to the sciatic's trifurcation, about 12 mm of nerve was freed of adhering tissue and four ligatures (3/0 silk suture) were tied loosely around it with about 1 mm spacings. Ligatures were tied such that the diameter of the nerve was only barely constricted. […] The incision was closed in layers. The experiments were then carried out 1 week after surgery. Mechanical hyperalgesia was determined with an analgesimeter (Ugo Basile, Italy), using the modified Randall-Selitto method. Briefly, a conical stylus with a hemispherical tip was places upon the middle of hind paw dorsum. The animal was gently restrained and calibrated pressure of gradually increasing intensity was applied until the rat withdrew the hindpaw. Threshold pressure (g) of both hindpaws was determined every 15 minutes, with two measurements before the treatments (pretest), and from 15 to 60 minutes after treatment. An arbitrary cut-off value of 240 g was adopted.

Structure (SMILES)	Contra-PWT30 min (paw withdrawal threshold, contralateral unlesioned paw) (175 μmol/kg sc) [g]	sedative effect (175 μmol/kg sc, observed in CCI experiment)	Ipsi-PWT30 min (paw withdrawal threshold, CCI-lesioned ipsilateral paw) (175 μmol/kg sc) [g]	PWT30 min [g]	PWT60 min [g]
COc1cc(/C=C/C(=O)OCCCCO[N+](=O)[O-])ccc1O [Ferulic acid 4-(nitrooxy)butyl ester, Ferulic Acid 4-(nitrooxy)butyl ester]	98.5 ± 4.8	did not induce any appreciable sedative effect	76.3 ± 4.8	76.3 ± 4.8	37.5 ± 5.9
COc1cc(/C=C/C(=O)O)ccc1O [Ferulic acid]	71.4 ± 11.1	–	37.9 ± 15.5	–	–
NCC1(CC(=O)O)CCCCC1 [Gabapentin]	84.3 ± 3.9	–	75.1 ± 9.8	75.1 ± 9.8	37.6 ± 7.0
